The test system of experiment [1] is Stagonospora nodorum (Leptosphaeria nodorum—LEPTNO). The experiment can be described thus: In vitro fungal growth inhibition, Stagonospora nodorum (LEPTNO). As to conditions: Leptosphaeria, read-out: LEPTNO in vitro Growth Inhibition. Type of experiment: cell-based.
Experiment [2] has as its system Mycosphaerella graminicola (Septoria tritici—SEPTTR). Description: In vitro fungal growth inhibition, Mycosphaerella graminicola (SEPTTR). Type of experiment: cell-based. As to conditions: Zymoseptoria tritici, read-out: SEPTTR in vitro Growth Inhibition.
For experiment [3], the system named is Leptosphaeria nodorum—LEPTNO. The experiment can be described thus: Glume Blotch of Wheat, in vivo whole plant, 24 Hour Protectant. The conditions noted are these: for pest or weed control at 100 ppm: Leptosphaeria, read-out: LEPTNO in vivo 1 Day Protectant.
The subject of experiment [4] is Magnaporthe grisea (Pyricularia oryzae—PYRIOR). Description: microbe, parasite or virus in culture. Type of experiment: cell-based. The conditions noted are these: Pyricularia oryzae, read-out: PYRIOR in vitro Growth Inhibition.
Experiment [5] has as its system Rhizoctonia solani (RHIZSO). The experiment can be described thus: microbe, parasite or virus in culture. The conditions noted are these: Rhizoctonia solani, read-out: RHIZSO in vitro Growth Inhibition. Type of experiment: cell-based.
In the next experiment the test system is Septoria tritici—SEPTTR. Description: Leaf Blotch of Wheat, in vivo whole plant, 24 Hour Protectant. The conditions noted are these: for pest or weed control at 100 ppm: Zymoseptoria tritici, 24 h, control of fungal infection vs untreated plants, read-out: SEPTTR in vivo 1 Day Protectant.
A further experiment has as its system Erysiphe graminis—ERYSGT. Description: Powdery Mildew of Wheat, in vivo whole plant, 24 Hour Protectant. The conditions noted are these: for pest or weed control at 100 ppm: Erysiphe, read-out: ERYSGT in vivo 1 Day Protectant.
The test system of the next experiment is Ustilago maydis (USTIMA). Description: microbe, parasite or virus in culture. Type of experiment: cell-based. The conditions noted are these: Mycosarcoma maydis, read-out: USTIMA in vitro Growth Inhibition.
Experiment [6] has as its system Puccinia recondita—PUCCRT. Description: Brown Rust of Wheat, in vivo whole plant, 24 Hour Protectant. As to conditions: for pest or weed control at 100 ppm: Puccinia, read-out: PUCCRT in vivo 1 Day Protectant.
Experiment [7] concerns Phytophthora infestans (PHYTIN). The experiment can be described thus: microbe, parasite or virus in culture. Type of experiment: cell-based. As to conditions: Phytophthora infestans, read-out: PHYTIN in vitro Growth Inhibition.
Experiment [8] relates to Phytophthora infestans—PHYTIN. Description: whole plant or invertebrate. Type of experiment: in vivo. The conditions noted are these: Phytophthora, in Solanum lycopersicum, 24 h, read-out: PHYTIN in vivo 1 Day Protectant.
The mark [9] stands for this setting: wheat plants sprayed at 100 ppm, inoculated after 24 hours, control of fungal infection vs untreated plants.
Setting [10] is: wheat plants sprayed at 100 ppm, inoculated after 24 hours.
The mark [11] stands for this setting: 100 ppm spray, wheat, 24 hour protectant, % control of fungal infection vs untreated plants.
Where [12] appears, read: 100 ppm spray, 24 hour protectant, wheat, control of fungal infection vs untreated plants.
Where [13] appears, read: 100 ppm spray, 24 hour protectant, wheat.
Setting [14] is: 100 ppm spray, wheat, 24 hour protectant, control of fungal infection vs untreated plants.
Setting [15] is: 100 ppm spray, wheat, 24 hour protectant.

Broadly, the inhibition is the share of the control response that was lost under treatment.

Read-outs that look alike come from different tables or passages of the source.

Turning to `CC(=O)Oc1cccnc1C(=O)Nc1ccc(Oc2cccc(C(F)(F)F)c2)cc1` [Compound 570], the inhibition at 25 ppm in [1] (25 ppm in the growth medium) was below 80%; in experiment [2] (25 ppm in the growth medium), below 80%; in experiment [4], above 80%; in [5] it was below 80%; in the experiment on Ustilago maydis (USTIMA) it was below 80%; in experiment [7], below 80%. Further, the pest or weed control at 100 ppm in experiment [3] (setting [9]) is 25 to 74%; in the experiment with Septoria tritici—SEPTTR (setting [10]) it was 25 to 74%; in [6] (setting [9]) it was below 25%; in [8], below 25%. For the same compound, the “ERYSGT in vivo 1 Day Protectant” value in the experiment on Erysiphe graminis—ERYSGT (setting [9]) is given as “+ +”.

`COc1ccnc(C(=O)N[C@H]2COC(=O)[C@H](Cc3ccccc3)[C@@H](OC(=O)C(C)C)[C@H](C)OC2=O)c1OC(=O)C(C)(C)C` [Compound 605]: the inhibition at 25 ppm (in experiment [1] (25 ppm in growth medium); in experiment [2] (25 ppm in growth medium); in [4]; in experiment [5]; in the experiment on Ustilago maydis (USTIMA); in experiment [7]) was below 80% in each case. Besides, in experiment [3] (setting [11]), the “LEPTNO in vivo 1 Day Protectant” value was “+ +”. For the same compound, the “SEPTTR in vivo 1 Day Protectant” value with Septoria tritici—SEPTTR (setting [11]) is given as “+ +”. Further, the pest or weed control at 100 ppm (in the experiment with Erysiphe graminis—ERYSGT (setting [11]); in experiment [8]) was below 25% in each case. Besides, in experiment [6] (setting [11]), the “PUCCRT in vivo 1 Day Protectant” value is given as “+ +”.

Regarding `COc1ccnc(C(=O)NC2CC(C)(C)C(=O)C(C)(C)C2)c1OC(C)=O` [Compound 575], the inhibition at 25 ppm (in [1] (25 ppm in the growth medium); in experiment [2] (25 ppm in the growth medium); in [4]; in [5]; in the experiment on Ustilago maydis (USTIMA); in experiment [7]) was below 80% throughout. Besides, the pest or weed control at 100 ppm in [3] (setting [9]) was 25 to 74%; in the experiment with Septoria tritici—SEPTTR (setting [10]), 25 to 74%; with Erysiphe graminis—ERYSGT (setting [9]) it was below 25%; in experiment [6] (setting [9]), 25 to 74%; in experiment [8], below 25%.

As to `COc1ccnc(C(=O)NC2CC(C)(C)CC3(C2)CC3(F)F)c1O` (stereo not drawn) [Compound 255], the inhibition at 25 ppm in experiment [1] (25 ppm in growth medium) was below 80%; in experiment [2] (25 ppm in growth medium), above 80%; in experiment [4] it was below 80%; in experiment [5], below 80%; in the experiment on Ustilago maydis (USTIMA), below 80%; in [7], below 80%. Also, the “LEPTNO in vivo 1 Day Protectant” value in experiment [3] (setting [12]) was “+ +”. Further, the pest or weed control at 100 ppm with Septoria tritici—SEPTTR (setting [13]) was 25 to 74%; in the experiment on Erysiphe graminis—ERYSGT (setting [12]) it was below 25%; in [6] (setting [12]), 25 to 74%; in experiment [8], below 25%.

In the case of `O=C(NCc1sccc1Cl)c1nc(Br)ccc1O` [Compound 484], the inhibition at 25 ppm (in [1] (25 ppm in the growth medium); in [2] (25 ppm in the growth medium); in experiment [4]; in experiment [5]; in the experiment with Ustilago maydis (USTIMA); in experiment [7]) was below 80% in each case. The pest or weed control at 100 ppm (in experiment [3] (setting [9]); in the experiment on Septoria tritici—SEPTTR (setting [10]); with Erysiphe graminis—ERYSGT (setting [9]); in [6] (setting [9]); in [8]) was below 25% each time.

For `COc1ccnc(C(=O)Nc2ccc(Oc3ccc(C(F)(F)F)cc3)cc2)c1O` [Compound 425, 3-HYDROXY-4-METHOXY-N-(4-(4-TRIFLUOROMETHYLPHENOXY)PHENYL)-PYRIDINE-2-CARBOXAMIDE], the inhibition at 25 ppm in experiment [1] (25 ppm in growth medium) is above 80%; in experiment [2] (25 ppm in growth medium), above 80%; in experiment [4], above 80%; in experiment [5] it was above 80%; in the experiment on Ustilago maydis (USTIMA), below 80%; in [7] it was below 80%. Besides, the pest or weed control at 100 ppm in experiment [3] (setting [14]) is below 25%; in the experiment on Septoria tritici—SEPTTR (setting [15]) it was 25 to 74%; in the experiment with Erysiphe graminis—ERYSGT (setting [14]) it was below 25%; in experiment [6] (setting [14]), 25 to 74%; in [8], 25 to 74%.

Regarding `COc1ccnc(C(=O)NC2CCCC(Sc3ccc(C(F)(F)F)cn3)C2)c1O` (stereo not drawn) [Compound 274], the inhibition at 25 ppm in experiment [1] (25 ppm in growth medium) was above 80%; in experiment [2] (25 ppm in growth medium) it was above 80%; in [4], above 80%; in experiment [5], above 80%; in the experiment on Ustilago maydis (USTIMA), below 80%; in [7], above 80%. For the same compound, the “LEPTNO in vivo 1 Day Protectant” value in [3] (setting [12]) is “+ +”. Further, the pest or weed control at 100 ppm with Septoria tritici—SEPTTR (setting [13]) is 25 to 74%; in the experiment with Erysiphe graminis—ERYSGT (setting [12]), below 25%; in [8], below 25%. Further, in experiment [6] (setting [12]), the “PUCCRT in vivo 1 Day Protectant” value was “+ +”.

On to `Cc1cccc(CNC(=O)c2ncccc2O)c1` [Compound 222], for which the inhibition at 25 ppm (in experiment [1] (25 ppm in growth medium); in [2] (25 ppm in growth medium); in [4]; in experiment [5]; in the experiment on Ustilago maydis (USTIMA); in [7]) was below 80% in each case. The pest or weed control at 100 ppm in experiment [3] (setting [12]) is below 25%; with Septoria tritici—SEPTTR (setting [13]), below 25%; in the experiment with Erysiphe graminis—ERYSGT (setting [12]) it was below 25%; in [6] (setting [12]), 25 to 74%; in [8], below 25%.

On to `COc1ccnc(C(=O)Nc2ccc(Oc3ccc(C#N)cc3)cc2)c1O` [Compound 422], for which the inhibition at 25 ppm in [1] (25 ppm in growth medium) was below 80%; in experiment [2] (25 ppm in growth medium), below 80%; in experiment [4], above 80%; in experiment [5] it was below 80%; in the experiment with Ustilago maydis (USTIMA), below 80%; in experiment [7], below 80%. Also, the pest or weed control at 100 ppm in experiment [3] (setting [14]) is below 25%; in the experiment on Septoria tritici—SEPTTR (setting [15]), below 25%; in the experiment with Erysiphe graminis—ERYSGT (setting [14]) it was below 25%; in experiment [6] (setting [14]) it was below 25%; in experiment [8], 25 to 74%.

On to `COc1ccnc(C(=O)N[C@H]2COC(=O)[C@H](Cc3ccccc3)[C@@H](OC(=O)NC(C)C)[C@H](C)OC2=O)c1O` [Compound 399], for which the inhibition at 25 ppm (in [1] (25 ppm in growth medium); in [2] (25 ppm in growth medium); in experiment [4]; in [5]; in the experiment on Ustilago maydis (USTIMA); in experiment [7]) was below 80% in each case. In addition, the “LEPTNO in vivo 1 Day Protectant” value in experiment [3] (setting [14]) was “+ +”. Moreover, the pest or weed control at 100 ppm is 25 to 74% with Septoria tritici—SEPTTR (setting [15]), below 25% in the experiment on Erysiphe graminis—ERYSGT (setting [14]), 25 to 74% in experiment [6] (setting [14]) and below 25% in [8].

Consider `COc1ccnc(C(=O)N[C@@H]2C(=O)O[C@@H](C)C[C@@H](C)C(=O)O[C@@H]2C)c1O` [Compound 381], for which the inhibition at 25 ppm was above 80% in [1] (25 ppm in growth medium); above 80% in experiment [2] (25 ppm in growth medium); below 80% in experiment [4]; below 80% in [5]; below 80% in the experiment on Ustilago maydis (USTIMA); below 80% in [7]. Moreover, the pest or weed control at 100 ppm in [3] (setting [14]) was below 25%; in the experiment with Septoria tritici—SEPTTR (setting [15]), below 25%; in the experiment on Erysiphe graminis—ERYSGT (setting [14]), below 25%; in experiment [6] (setting [14]), 25 to 74%; in experiment [8], below 25%.

For the compound `CC(NC(=O)c1ccncc1O)c1ccc(Oc2ccccc2)cc1` (stereo not drawn) [Compound 512], the inhibition at 25 ppm (in experiment [1] (25 ppm in the growth medium); in [2] (25 ppm in the growth medium); in experiment [4]; in [5]; in the experiment with Ustilago maydis (USTIMA); in experiment [7]) was below 80% in each case. Besides, the pest or weed control at 100 ppm was below 25% in experiment [3] (setting [9]); below 25% in the experiment with Septoria tritici—SEPTTR (setting [10]); below 25% with Erysiphe graminis—ERYSGT (setting [9]); below 25% in experiment [6] (setting [9]); 25 to 74% in experiment [8].
